Patent US20110071197A1, “BIS-ARYL COMPOUNDS FOR USE AS MEDICAMENTS” (priority 2008, published 2011)

Each compound was assayed against T1, Recombinant human LTC4 synthase (Homo sapiens, UniProt Q16873) (assay: LTC4 synthase in vitro assay (HTRF detection of LTC4)). Details: compound concentration 3 μM; HTRF method.
T1 construct: made in house; host or cells: Pichia pastoris
T1 sequence (Q16873 1-150): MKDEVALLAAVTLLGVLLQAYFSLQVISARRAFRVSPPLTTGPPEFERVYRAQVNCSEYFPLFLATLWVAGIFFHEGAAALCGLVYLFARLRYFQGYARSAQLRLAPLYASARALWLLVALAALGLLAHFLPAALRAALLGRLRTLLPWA
Assay type: biochemical
Procedure, shortened: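 Pichia-expressed recombinant human LTC4 synthase at 0.5 μg/ml total protein in PBS pH 7.4 with 5 mM GSH, preincubated 10 min at RT with inhibitor (10 μM final). LTA4 (2.5 μM final) was then added for 5 min at RT. LTC4 formed was read by HTRF.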

| inhibition at 3 µM [%] | Structure (SMILES) |
| --- | --- |
| 97 | O=C(O)c1cc(Oc2ccc(Nc3ccc(C(=O)C4CC4)cc3)c(C(=O)O)c2)ccc1Nc1ccc(F)cc1 [1:7, 5-[3-carboxy-4-(4-cyclopropane-carbonylphenylamino)phenyloxy]-2-(4-fluorophenylamino)benzene-carboxylic acid] |

Same assay, conditions: total concentration of title compound in the assay 10 μM; HTRF method

| Structure (SMILES) | inhibition at 10 µM [%] | % inh. [%] |
| --- | --- | --- |
| CCCCOc1ccc(S(=O)(=O)Nc2ccc(Oc3ccc(N(C)C(=O)c4cccc(Cl)c4Cl)c(C(=O)O)c3)cc2)cc1 [11:10, 5-[4-(4-butoxybenzenesulfonyl-amino)phenoxy]-2-[(2,3-di-chlorobenzoyl)methylamino]-benzoic acid] | 95 |  |
| O=C(O)c1cc(Oc2ccc(NS(=O)(=O)c3ccc(OC(F)(F)F)cc3)cc2)ccc1NS(=O)(=O)c1ccc(OC(F)(F)F)cc1 [Example 30:3, 2-(4-Trifluoromethoxybenzenesulfonylamino)-5-[4-(4-trifluoromethoxybenzene-sulfonylamino)phenoxy]benzoic acid] | 100 |  |
| CC(C)(C)c1ccc(C(=O)Nc2ccc(Oc3ccc(NC(=O)c4ccccc4Cl)c(C(=O)O)c3)cc2)cc1 [Example 8:15, 5-[4-(4-tert-Butylbenzoyl-amino)phenoxy]-2-(2-chloro-benzoylino)benzoic acid] |  | 98 |
| O=C(Nc1ccc(Oc2ccc(NC(=O)c3ccc([N+](=O)[O-])cc3)c(C(=O)O)c2)cc1C(=O)O)c1ccc([N+](=O)[O-])cc1 [4:3, 5-[3-carboxy-4-(4-nitrobenzamido)phenyloxy]-2-(4-nitrobenzamido)benzoic acid] | 97 |  |
| CCCCc1ccc(C(=O)Nc2ccc(Oc3ccc(NS(=O)(=O)c4ccccc4)c(C(=O)OC)c3)cc2C(=O)O)cc1 [Example 7:1, 2-(4-butylbenzamido)-5-(3-(methoxycarbonyl)-4-(phenylsulfonamido)-phenoxy)benzoic acid] | 95 |  |
| CC(C)Oc1ccc(C(=O)Nc2ccc(Oc3ccc(S(=O)(=O)Nc4ccc(F)c(F)c4)cc3)cc2C(=O)O)cc1 [25:6, 5-[4-(3,4-Difluoro-phenylsulfamoyl)-phenoxy]-2-(4-isopropoxybenzoyl-amino)benzoic acid] | 100 |  |
| CCCCc1ccc(C(=O)Nc2ccc(Oc3ccc(NC(=O)c4ccc(Cl)cc4Cl)c(CC(=O)O)c3)cc2C(=O)O)cc1 [6:1, 2-(4-butyl-benzoyl-amino)-5-[3-carboxy-methyl-4-(2,4-dichloro-benzoylamino)phenoxy]-benzoic acid] |  | 99 |
| CCCCOc1ccc(S(=O)(=O)Nc2ccc(Oc3cccc(C(=O)NS(=O)(=O)c4ccc(F)cc4)c3)cc2C(=O)O)cc1 [20:7, 2-(4-Butoxy-benzenesulfonylamino)-5-[3-(4-fluoro-benzenesulfonylamino-carbonyl)-phenoxy]-benzoic acid] | 94 |  |
| O=C(Nc1ccc(C(F)(F)F)cc1)Nc1ccc(Oc2ccc(S(=O)(=O)Nc3ccc(Cl)cc3)cc2)cc1C(=O)O [25:1, 5-[4-(4-Chlorophenylsulfamoyl)-phenoxy]-2-[3-(4-trifluoromethyl-phenyl)ureido]benzoic acid] | 98 |  |
| CN(c1cc(Oc2ccc(Nc3ccc(C(=O)C4CC4)cc3)cc2)cc(C(=O)O)c1)c1ccc(F)c(F)c1 [18:3, 3-[4-(4-Cyclopropanecarbonyl-phenylamino)-phenoxy]-5-[(3,4-difluoro-phenyl)-methyl-amino]-benzoic acid] | 95 |  |
| CCCCOc1ccc(S(=O)(=O)Nc2ccc(Oc3ccc(NC(=O)c4ccc(OC(C)C)cc4)c(C(=O)O)c3)cc2/C=C/C(=O)O)cc1 [Example 22:4, 5-[4-(4-butoxybenzenesulfonyl-amino)-3-((E)-2-carboxyvinyl)-phenoxy]-2-(4-isopropoxy-benzoylamino)benzoic acid] | 100 |  |
| Cc1c(Cl)cccc1S(=O)(=O)Nc1ccc(Oc2ccc(Nc3ccc(F)c(F)c3)c(C(=O)O)c2)cn1 [Example 33:2, 5-(6-(3-Chloro-2-methylphenylsulfonamido)pyridin-3-yloxy)-2-(3,4-difluorophenylamino)benzoic acid] | 99 |  |
| CC(C)(C)OC(=O)c1cc(Oc2cccc(C(=O)NS(=O)(=O)c3ccc(F)c(F)c3)c2)ccc1Nc1ccc(Cl)cc1 [20:6, 2-(4-Chloro-phenylamino)-5-[3-(3,4-difluoro-benzenesulfonylamino-carbonyl)-phenoxy]-benzoic acid t-butyl ester] | 100 |  |
| COc1ccc(S(=O)(=O)N(C)c2ccc(Oc3ccc(NC(=O)c4ccc(Cl)cc4OC)c(C(=O)O)c3)cc2)cc1 [11:17, 2-(4-Chloro-2-methoxy-benzoylamino)-5-{4-[(4-methoxy-benzenesulfonyl)-methyl-amino]-phenoxy}-benzoic acid] | 97 |  |
| CCCCOc1ccc(S(=O)(=O)Nc2ccc(Oc3cccc(NCc4cccc(OC)c4OC)c3)cc2C(=O)O)cc1 [23:2, 2-(4-Butoxybenzenesulfonylamino)-5-[3-(2,3-dimethoxybenzylamino)-phenoxy]benzoic acid] | 99 |  |
| CC(C)Oc1ccc(C(=O)Nc2ccc(Oc3ccc(NC(=O)c4ccccc4)c(C(=O)O)c3)cc2)cc1 [8:13, 2-benzoylamino-5-[4-(4-iso-propoxybenzoylamino)-phenoxy]benzoic acid] | 98 |  |
| CCCCOc1ccc(S(=O)(=O)Nc2ccc(Oc3cccc(CC(=O)NS(=O)(=O)c4ccc(F)c(F)c4)c3)cc2C(=O)OC(C)(C)C)cc1 [26:3] |  | 95 |
| CCCCOc1ccc(S(=O)(=O)Nc2ccc(Oc3ccc(NC(=O)c4ccccc4)cc3)cc2CCC(=O)O)cc1 [Example 22:2, 3-[5-(4-Benzoylaminophenoxy)-2-(4-butoxybenzenesulfonylamino)-phenyl]propionic acid] | 99 |  |
| COc1ccc(C(=O)Nc2ccc(Oc3ccc(N(C)C(=O)c4ccc(C(C)(C)C)cc4)cc3)cc2C(=O)O)cc1 [9:2, 5-(4-((N-methyl)-4-tert-butylbenz-amido)phenoxy)-2-(4-methoxybenz-amido)benzoic acid] |  | 96 |
| CCCCc1ccc(C(=O)Nc2ccc(Oc3ccc(NC(=O)c4cc(Cl)cc(Cl)c4)c(C(=O)O)c3)cc2C(=O)O)cc1 [2:6, 5-[3-carboxy-4-(3-chloro-5-chloro-benzamido)-phenyloxy]-2-(4-butylbenz-amido)benzoic acid] |  | 100 |
| Cc1nc(C(F)(F)F)ccc1C(=O)Nc1ccc(Oc2ccc(NS(=O)(=O)c3ccc(F)c(Cl)c3)c(C(=O)O)c2)cc1 [21:1, 2-(3-Chloro-4-fluoro-benzenesulfonylamino)-5-{4-[(2-methyl-6-trifluoromethyl-pyridine-3-carbonyl)-amino]-phenoxy}-benzoic acid] | 100 |  |

Now from value to compound, other results behind:

| inhibition at 10 µM [%] | Structure (SMILES) | % inh. [%] |
| --- | --- | --- |
| 100 | Cc1nc(C(F)(F)F)ccc1C(=O)Nc1ccc(Oc2ccc(NC(=O)c3ccc(OC(C)C)cc3)cc2)cc1C(=O)O [8:14, 5-[4-(4-isopropoxybenzoyl-amino)phenoxy]-2-[(2-methyl-6-trifluoromethylpyridine-3-carbonyl)amino]benzoic acid] |  |
| 87 | O=C(O)c1cc(Oc2ccc(N(c3ccc(C(=O)C4CC4)cc3)c3ccc(C(=O)C4CC4)cc3)cc2)ccc1Nc1ccc(C(=O)C2CC2)cc1 [12:4, 5-{4-[bis-(4-cyclopropane-carbonyl-phenyl)-amino]-phenoxy}-2-(4-cycloprop-anecarbonyl-phenylamino)-benzoic acid] |  |
| 83 | CCCCc1ccc(C(=O)Nc2ccc(Oc3ccc(N(C(=O)c4ccc(CCCC)cc4)c4ccc(F)cc4)cc3)cc2C(=O)O)cc1 [12:3, 5-(4-((N-4-fluorophenyl)4-butylbenzamido)phenoxy)-2-(4-butylbenzamido)benzoic acid] |  |
| 99 | CCCCc1ccc(S(=O)(=O)Nc2ccc(Oc3ccc(NC(=O)c4ccc(C(F)(F)F)cc4)c(C(=O)O)c3)cc2)cc1 [Example 11:1, 5-[4-(4-butylbenzene-sulfonylamino)phenoxy]-2-(4-trifluoromethylbenzoylamino)-benzoic acid] |  |
| 100 | O=C(O)c1cc(Oc2ccc(S(=O)(=O)Nc3ccc(Cl)cc3)cc2)ccc1Nc1ccc(F)c(F)c1 [Example 25:7, 5-[4-(4-Chlorophenylsulfamoyl)-phenoxy]-2-(3,4-difluorophenyl-amino)benzoic acid] |  |
| 96 | O=C(O)c1cc(Oc2ccc(Nc3ccc(F)cc3)cc2)ccc1Nc1ccc(F)c(F)c1 [Example 12:1, 2-(3,4-difluorophenylamino)-5-(4-(4-fluorophenylamino)-phenoxy)benzoic acid] |  |
| 99 | CCCCc1ccc(C(=O)Nc2ccc([S+]([O-])c3ccc(NC(=O)c4ccc(CCCC)cc4)c(C(=O)O)c3)cc2C(=O)O)cc1 [15:1, 5-(4-(4-butylbenzamido)-3-carboxyphenylsulfinyl)-2-(4-butylbenzamido)benzoic acid] |  |
| 97 | O=C(NS(=O)(=O)c1cccc(Cl)c1F)c1cccc(Oc2ccc(Nc3ccc(Cl)cc3)c(C(=O)O)c2)c1 [20:3, 5-[3-(3-Chloro-2-fluoro-benzene-sulfonylaminocarbonyl)-phenoxy]-2-(4-chloro-phenylamino)-benzoic acid] |  |
| 98 | Cc1c(Cl)cccc1S(=O)(=O)Nc1ccc(Oc2cc(Nc3ccc(F)c(F)c3)cc(C(=O)O)c2)cc1 [18:4, 3-[4-(3-Chloro-2-methyl-benzene-sulfonylamino)-phenoxy]-5-(3,4-difluoro-phenylamino)-benzoic acid] |  |
| 98 | O=C(Nc1cccc(Oc2ccc(NC(=O)c3ccc(C(F)(F)F)cc3F)c(C(=O)O)c2)c1)c1ccc(C(F)(F)F)cc1 [10:6, 2-(2-fluoro-4-trifluoromethylbenzoyl-amino)-5-[3-(4-trifluoromethylbenzoyl-amino)phenoxy]benzoic acid] |  |
| 87 | CC(C)Oc1ccc(C(=O)Nc2ccc(Oc3ccc(NC(=O)c4ccccc4)cc3)cc2CC(=O)O)cc1 [17:3, [5-(4-benzoylamino-phenoxy)-2-(4-isopropoxy-benzoyl-amino)-phenyl]-acetic acid] |  |
